Results reported in patent publication US10450549B2, “Aryloxyphenoxypropionate tolerance in turfrgass species and use of AAD1 as a selectable marker” (Dow AgroSciences, LLC, priority 2004, dated 2019).

Assays:
[1] = tested on: AAD1-transformed T0 ‘Crenshaw’ creeping bentgrass events (pDAB3878, pDAB5042); test: Quizalofop-p-ethyl postemergence on AAD1-transformed T0 Crenshaw creeping bentgrass, visual % injury; assay type: in vivo, Agrostis stolonifera L. var. palustris
Description: After molecular confirmation was utilized to identify transgenic events, a number of transgenic events were tested for herbicide tolerance. Specific isolated transgenic events were selected and maintained vegetatively through division of the crowns and replanting the clonal pieces into fresh growth medium. Clonally propagated plants were maintained by periodic “mowing” of vegetative tissues.
Growth medium was prepared by mixing Promix® and sand in a 2 to 1 ratio. The medium was contained in plastic pots with a surface area of 84.6 square centimeters (cm^2). When required to maintain plant health, a fungicide, insecticide, and/or other chemical or physical treatment was applied to stock plants. The plants were maintained in a greenhouse with an approximate 14 hour photoperiod which was maintained at 24-27° C. during the day and 22-25° C. during the night. Nutrients (Peters Excel® 15-5-15 5-Ca 2-Mg and iron chelate) were applied in the irrigation solution as needed, and water was added on a regular basis. Supplemental lighting was provided with overhead metal halide 1000-Watt lamps when photosynthetically active radiation (PAR) dropped below 500.
(§1) Selected T0 plants were sprayed with quizalofop-p-ethyl (Assure II®, DUPONT, Wilmington, Del.) at rates ranging from 60 to 2,240 g ae/ha. […] This rate also controls susceptible monocot weed species. Measured amounts were placed individually in 25 mL glass vials and dissolved in a 4 mL volume of 1.0% (v/v) Agri-Dex® Crop Oil Concentrate (COC) from HELENA CHEMICAL (Collierville, Tenn.). Application solutions were prepared by serial dilution of the highest rate applied. One-half the volume of the highest rate stock solution (2 mL) was transferred to a clean 25 mL vial containing an equal volume of 1% COC and the diluted solution was mixed. Additional dilutions were prepared similarly by removing one-half the volume of the previous concentration (2 mL), and adding to an equal volume of 1% COC and mixing. When preparing the lowest concentration, the remaining one-half volume was discarded. All 2 mL stock solutions were further diluted by adding 10 mL aqueous mixture of 1.0% (v/v) COC, so that the final spray solutions were 12 mL in volume and contained 1.0% (v/v) COC.
(§2) Spray solutions were applied to the plant material with an overhead Mandel™ track sprayer equipped with a 8002E nozzles calibrated to deliver 187 L/ha over an application area of 0.503 square meters (m^2) at a spray height of 18 inches (46 cm) above average plant canopy height. Control plants were sprayed in the same manner with the COC blank.
(§3) The treated plants and control plants were placed in a greenhouse, and watered by sub-irrigation to prevent wash-off of the test compounds. At various times after application, the condition of the test plants as compared with that of the untreated plants was determined visually and scored on a scale of 0 to 100 percent (where 0 corresponds to no injury or growth inhibition and 100 corresponds to complete kill). Regenerated, non-transformed (NT) ‘Crenshaw’ or elite line 2905-2 creeping bentgrass plants and/or seed-derived clonally propagated plants served as quizalofop sensitive controls.

[2] = tested on: non-transformed (NT) and seed-derived (WT) creeping bentgrass; test: Quizalofop-p-ethyl postemergence on non-transformed / seed-derived creeping bentgrass controls; assay type: in vivo, Agrostis stolonifera L. var. palustris
Description: as §1, §2, §3

[3] = tested on: AAD1 (v3)-transformed T0 corn events; test: Tolerance of T0 AAD1 (v3) corn plants (pDAB3404) to postemergence AOPP herbicides; assay type: in vivo

CCOC(=O)[C@@H](C)Oc1ccc(Oc2cnc3cc(Cl)ccc3n2)cc1 [quizalofop-p-ethyl]
injury of events CBG12 and CBG23 ([1]; 120 g ae/ha): uninjured
injury of events CBG12 and CBG23 ([1]; 480 g ae/ha): less than 10%
Mean % Injury (SE) ([1]; event CBG2, 120 g ae/ha, 11 DAA): 30 (0) %
Mean % Injury (SE) ([1]; event CBG2, 120 g ae/ha, 14 DAA): 30 (0) %
Mean % Injury (SE) ([1]; event CBG2, 120 g ae/ha, 20 DAA): 25 (0) %
Mean % Injury (SE) ([1]; event CBG2, 480 g ae/ha, 11 DAA): 45%
Mean % Injury (SE) ([1]; event CBG2, 480 g ae/ha, 14 DAA): 45%
Mean % Injury (SE) ([1]; event CBG2, 480 g ae/ha, 20 DAA): 40%
Mean % Injury (SE) ([1]; event CBG4, 120 g ae/ha, 11 DAA): 70 (0) %
Mean % Injury (SE) ([1]; event CBG4, 120 g ae/ha, 14 DAA): 85 (0) %
Mean % Injury (SE) ([1]; event CBG4, 120 g ae/ha, 20 DAA): 90 (3) %
Mean % Injury (SE) ([1]; event CBG5, 120 g ae/ha, 11 DAA): 32 (6) %
Mean % Injury (SE) ([1]; event CBG5, 120 g ae/ha, 14 DAA): 42 (8) %
Mean % Injury (SE) ([1]; event CBG5, 120 g ae/ha, 20 DAA): 23 (7) %
Mean % Injury (SE) ([1]; event CBG5, 480 g ae/ha, 11 DAA): 30 (5) %
Mean % Injury (SE) ([1]; event CBG5, 480 g ae/ha, 14 DAA): 30 (5) %
Mean % Injury (SE) ([1]; event CBG5, 480 g ae/ha, 20 DAA): 10 (0) %
Mean % Injury (SE) ([1]; event CBG12, 120 g ae/ha, 11 DAA): 0 (0) %
Mean % Injury (SE) ([1]; event CBG12, 120 g ae/ha, 14 DAA): 0 (0) %
Mean % Injury (SE) ([1]; event CBG12, 120 g ae/ha, 20 DAA): 0 (0) %
Mean % Injury (SE) ([1]; event CBG12, 480 g ae/ha, 11 DAA): 5 (3) %
Mean % Injury (SE) ([1]; event CBG12, 480 g ae/ha, 14 DAA): 5 (3) %
Mean % Injury (SE) ([1]; event CBG12, 480 g ae/ha, 20 DAA): 5 (0) %
Mean % Injury (SE) ([1]; event CBG14, 120 g ae/ha, 11 DAA): 15 (5) %
Mean % Injury (SE) ([1]; event CBG14, 120 g ae/ha, 14 DAA): 18 (3) %
Mean % Injury (SE) ([1]; event CBG14, 120 g ae/ha, 20 DAA): 5 (5) %
Mean % Injury (SE) ([1]; event CBG14, 480 g ae/ha, 11 DAA): 30%
Mean % Injury (SE) ([1]; event CBG14, 480 g ae/ha, 14 DAA): 25%
Mean % Injury (SE) ([1]; event CBG14, 480 g ae/ha, 20 DAA): 15%
Mean % Injury (SE) ([1]; event CBG23, 120 g ae/ha, 11 DAA): 0 (0) %
Mean % Injury (SE) ([1]; event CBG23, 120 g ae/ha, 14 DAA): 0 (0) %
Mean % Injury (SE) ([1]; event CBG23, 120 g ae/ha, 20 DAA): 0 (0) %
Mean % Injury (SE) ([1]; event CBG23, 480 g ae/ha, 11 DAA): 7 (2) %
Mean % Injury (SE) ([1]; event CBG23, 480 g ae/ha, 14 DAA): 7 (3) %
Mean % Injury (SE) ([1]; event CBG23, 480 g ae/ha, 20 DAA): 0 (0) %
Mean % Injury (SE) ([1]; event CBG27, 120 g ae/ha, 11 DAA): 68 (3) %
Mean % Injury (SE) ([1]; event CBG27, 120 g ae/ha, 14 DAA): 75 (5) %
Mean % Injury (SE) ([1]; event CBG27, 120 g ae/ha, 20 DAA): 75 (5) %
Mean % Injury (SE) ([1]; event CBG27, 480 g ae/ha, 11 DAA): 85%
Mean % Injury (SE) ([1]; event CBG27, 480 g ae/ha, 14 DAA): 85%
Mean % Injury (SE) ([1]; event CBG27, 480 g ae/ha, 20 DAA): 85%
Mean % Injury (SE) ([1]; event CBG31, 120 g ae/ha, 11 DAA): 0%
Mean % Injury (SE) ([1]; event CBG31, 120 g ae/ha, 14 DAA): 5%
Mean % Injury (SE) ([1]; event CBG31, 120 g ae/ha, 20 DAA): 0%
Mean % Injury (SE) ([1]; event CBG32, 120 g ae/ha, 11 DAA): 5 (0) %
Mean % Injury (SE) ([1]; event CBG32, 120 g ae/ha, 14 DAA): 0 (0) %
Mean % Injury (SE) ([1]; event CBG32, 120 g ae/ha, 20 DAA): 0 (0) %
Mean % Injury (SE) ([1]; event CBG32, 480 g ae/ha, 11 DAA): 20%
Mean % Injury (SE) ([1]; event CBG32, 480 g ae/ha, 14 DAA): 20%
Mean % Injury (SE) ([1]; event CBG32, 480 g ae/ha, 20 DAA): 5%
Mean % Injury (SE) ([1]; event CBG33, 120 g ae/ha, 11 DAA): 8 (3) %
Mean % Injury (SE) ([1]; event CBG33, 120 g ae/ha, 14 DAA): 10 (0) %
Mean % Injury (SE) ([1]; event CBG33, 120 g ae/ha, 20 DAA): 5 (0) %
Mean % Injury (SE) ([1]; event CBG33, 480 g ae/ha, 11 DAA): 15%
Mean % Injury (SE) ([1]; event CBG33, 480 g ae/ha, 14 DAA): 15%
Mean % Injury (SE) ([1]; event CBG33, 480 g ae/ha, 20 DAA): 15%
Mean % Injury (SE) ([1]; event CBG38, 120 g ae/ha, 11 DAA): 14 (1) %
Mean % Injury (SE) ([1]; event CBG38, 120 g ae/ha, 14 DAA): 13 (3) %
Mean % Injury (SE) ([1]; event CBG38, 120 g ae/ha, 20 DAA): 6 (1) %
Mean % Injury (SE) ([1]; event CBG38, 480 g ae/ha, 11 DAA): 22 (4) %
Mean % Injury (SE) ([1]; event CBG38, 480 g ae/ha, 14 DAA): 22 (4) %
Mean % Injury (SE) ([1]; event CBG38, 480 g ae/ha, 20 DAA): 13 (2) %
Visual Injury 39 DAA ([2]; 240 g ae/ha, regenerated non-transformed control NT1): 95%
injury on non-transformed controls ([2]; both rates (120 and 480 g ae/ha)): ≥ 80%
Mean % Injury (SE) ([2]; non-transformed control NT1, 120 g ae/ha, 11 DAA): 83 (3) %
Mean % Injury (SE) ([2]; non-transformed control NT1, 120 g ae/ha, 14 DAA): 88 (3) %
Mean % Injury (SE) ([2]; non-transformed control NT1, 120 g ae/ha, 20 DAA): 90 (0) %
Mean % Injury (SE) ([2]; non-transformed control NT1, 480 g ae/ha, 11 DAA): 85 (0) %
Mean % Injury (SE) ([2]; non-transformed control NT1, 480 g ae/ha, 14 DAA): 90 (0) %
Mean % Injury (SE) ([2]; non-transformed control NT1, 480 g ae/ha, 20 DAA): 97 (2) %
Mean % Injury (SE) ([2]; non-transformed control NT2, 120 g ae/ha, 11 DAA): 80 (0) %
Mean % Injury (SE) ([2]; non-transformed control NT2, 120 g ae/ha, 14 DAA): 90 (0) %
Mean % Injury (SE) ([2]; non-transformed control NT2, 120 g ae/ha, 20 DAA): 93 (3) %
Mean % Injury (SE) ([2]; non-transformed control NT2, 480 g ae/ha, 11 DAA): 90 (0) %
Mean % Injury (SE) ([2]; non-transformed control NT2, 480 g ae/ha, 14 DAA): 90 (0) %
Mean % Injury (SE) ([2]; non-transformed control NT2, 480 g ae/ha, 20 DAA): 97 (2) %
GR90 (herbicide rate which produces 90% injury and/or growth inhibition) ([2]; seed grown plants): approximately 60 g ae/ha

CC(Oc1ccc(Oc2ncc(C(F)(F)F)cc2Cl)cc1)C(=O)O (stereo not shown) [haloxyfop]
% Injury 14 DAT ([3]; 8.8 g ae/ha, construct 3404 event 001 clone 016): 0%
% Injury 14 DAT ([3]; 8.8 g ae/ha, construct 3404 event 022 clone 019): 0%
% Injury 14 DAT ([3]; 8.8 g ae/ha, construct 3404 event 038 clone 016): 0%
% Injury 14 DAT ([3]; 17.5 g ae/ha, construct 3404 event 022 clone 016): 0%
% Injury 14 DAT ([3]; 17.5 g ae/ha, construct 3404 event 022 clone 020): 0%
